Data: article PMC11428593 (Antibiotics, 2024)
≈ marks a conversion by molar mass, not a printed value.

What was measured:
Assay type in all cases: cell-based, Staphylococcus aureus
MRSA USA300LAC = test: MIC by broth microdilution (CLSI); conditions: Staphylococcus aureus, MRSA, 16 h
Method: The MIC values of the alkyl pyridinol derivatives against the S. aureus strain ATCC 25923, MRSA strains ATCC 33591, ATCC BAA-44, and USA300LAC, as well as the P. aeruginosa strain ATCC 27853, were determined by following the CLSI guidelines for the broth microdilution antibiotic sensitivity testing protocol. In brief, the overnight cultures were diluted into Mueller Hinton Broth (MHB) to a final inoculum concentration of 5 × 10^5 CFU/mL (O.D600nm = 0.00001) and dispensed into a 96-well polystyrene plate (Alkali Scientific, Fort Lauderdale, FL, USA). Alkyl pyridine compounds were diluted into inoculated MHB to the indicated concentrations from stock solutions that would allow for DMSO concentrations below 5%, resulting in a total volume of 200 μL per well. The plates were subsequently incubated at 37 °C for 16 h at 300 rpm. The MIC values, which are defined as the lowest compound concentration that inhibited growth, were determined from three biological replicates.

[1] = tested on: S. aureus strain USA300LAC biofilm; test: Inhibition of biofilm formation (crystal violet); conditions: up to 4× MIC, in words
Method: (§1) The establishment of a bacterial biofilm usually begins with pathogen attachment to biotic and abiotic surfaces, and S. aureus is notorious for its ability to form biofilms on surfaces, such as implants and catheters, which presents a unique treatment challenge.
(§2) Overnight cultures of S. aureus strain USA300LAC were diluted into fresh TSB to an OD600nm = 0.001 and incubated aerobically at 37 °C until the mid-log phase. (A) To detect effects on biofilm formation, cultures were diluted to an OD600nm = 0.0001 in the presence and absence of JC-01-074 and vancomycin at concentrations of 0.5–4× MIC, respectively. (B) To detect effects on biofilm eradication, cultures were diluted to an OD600nm = 0.0001 and incubated under static conditions for 24 h, after which planktonic cells were removed, and the preformed biofilms were washed twice with PBS. […] Biofilm mass was quantified after 20 h via crystal violet staining. One-way ANOVA, Dunnett’s multiple-comparison test (* p < 0.05, ** p < 0.01); (n = 3, ±S.D.).
The overnight USA300LAC cultures were diluted 1000-fold into the fresh TSB media and incubated under shaking conditions at 37 °C until the mid-log phase. The cultures were subsequently diluted to approximately 4 × 10^6 CFU/mL and dispended into 96-well polystyrene plates (Alkali Scientific, Fort Lauderdale, FL, USA) containing DMSO (control), vancomycin (0.5–4× MIC), or the indicated alkyl pyridinol compounds (0.5–4× MIC) and sealed with a breath-easy membrane (Fisherbrand, Waltham, MA, USA). The peripheral wells were filled with PBS to limit evaporation. The plates were incubated without agitation at 37 °C for 24 h, following which the planktonic cells were removed. The biofilms were washed twice with PBS, stained with 0.1% crystal violet (CV) for 15 min, and washed again twice with PBS to remove the unbound CV dye. CV bound to biofilm cells was extracted with 30% (v/v) glacial acetic acid, and the O.D.595nm was determined.

[2] = tested on: S. aureus strain USA300LAC established biofilm; test: Biofilm eradication assay (crystal violet); conditions: at or below 4× MIC, 24 h, in words
Method: as §1, §2
The overnight USA300LAC cultures were diluted 1000-fold into the TSB media and incubated under shaking conditions at 37 °C until the mid-log phase. […] After 24 h of incubation, biofilm eradication was assessed via CV staining at 595 nm in a Tecan 200 Infinite Pro microplate reader (Tecan, Morgan Hill, CA, USA).

[3] = tested on: S. aureus strain USA300LAC; test: Checkerboard assay with JC-01-074 (FIC index); conditions: MHB, 37 °C, 20 h, antibiotic combined with JC-01-074
Method: Therefore, we tested whether the membrane-disrupting effects of JC-01-074 could increase the sensitivity of the S. aureus strain USA300LAC to antibiotics of different classes; for instance, by facilitating their uptake into the cytoplasm. […] Antibiotic concentrations were prepared by the microbroth dilution in MHB based on their MIC values (Table 1) to obtain the final concentrations as outlined in the 96-well plate scheme for each antibiotic tested (Supplementary Figure S3). Overnight USA300LAC cultures were diluted to 5 × 10^5 CFU/mL in MHB, and the growth was recorded at 37 °C and 200 rpm for 20 h in the presence and absence of the indicated antibiotic.
FICs were calculated as the ratio of the MIC of the antimicrobial in combination with the MIC of the antimicrobial alone. Interactions were categorized as synergistic (<0.5), additive or no interaction (0.5–2), and antagonistic (>2). FICs were calculated from three biological replicates.
Following previous studies, the checkerboard assay was employed to determine whether JC-01-074 had synergistic effects in combination with members of different antibiotic classes. The indicated antibiotics tested in combination were first serially diluted two-fold in MHB on a longitudinal axis in a 96-well polystyrene plate. JC-01-074 was then serially diluted two-fold across the 96-well plate horizontal axis. The plates were inoculated with USA300LAC to a final inoculum concentration of 5 x10^5 CFU/mL (O.D.600nm = 0.0001) and incubated overnight at 37 °C for 20 h. The growth was measured at 600 nm in a Tecan 200 Infinite Pro microplate reader. The fractional inhibitory concentration was calculated as follows:FIC = MICJC-01-074 + antibiotics/[…]
The classification of interactions was based on the FIC index: interactions were categorized as synergistic (FIC ≤ 0.5), additive/no interaction (FIC 0.5–2.0), and antagonistic (FIC > 2.0).

Question: What does the source list for `CN[C@H](CC(C)C)C(=O)N[C@H]1C(=O)N[C@@H](CC(N)=O)C(=O)N[C@H]2C(=O)N[C@H]3C(=O)N[C@H](C(=O)N[C@H](C(=O)O)c4cc(O)cc(O)c4-c4cc3ccc4O)[C@H](O)c3ccc(c(Cl)c3)Oc3cc2cc(c3O[C@@H]2O[C@H](CO)[C@@H](O)[C@H](O)[C@H]2O[C@H]2C[C@](C)(N)[C@H](O)[C@H](C)O2)Oc2ccc(cc2Cl)[C@H]1O` [Vancomycin, reference compound]?
Answer: MIC (MRSA USA300LAC): 1 µg/mL (≈ 0.69 µM); inhibition of biofilm formation [1]: failed to significantly inhibit biofilm formation; eradication of established biofilms [2]: neither JC-01-074 nor vancomycin successfully reduced established biofilms; interaction with JC-01-074 (sum of FIC values) [3]: additive (additive/no interaction (FIC 0.5–2.0))
